Patent EP4351590B1, “A GLUCOSE-METHOTREXATE CONJUGATE FOR USE IN PREVENTING OR TREATING AUTOIMMUNE DISEASES” (Uniwersytet Medyczny Im. Piastów Slaskich We Wroclawiu, priority 2021, dated 2022)
Where two headings read alike, the source gives them in different places.

How the values were obtained:
[1] = cited from earlier work
[2] = cited from earlier work; remark: listed apart in the source
unstimulated HaCaT cells = assay: MTT assay, cell viability, non-inflammatory cell model; assay type: cell-based; settings: 10 µM, incubation 48 hours, unstimulated HaCaT (non-inflammatory human keratinocytes), mean of 3 replicates
Description: SW982 and HaCaT cells were seeded in a 96-well plate at 10 x 10^3 cells per well. The next day, cells were incubated with TNF-a at a dose of 10 ng/ml to induce inflammation. After 24h, cells were treated with MTX or Glu-MTX at 10 µM dose and incubated for 48h. After 48 hours of incubation, the medium was decanted, and 100 µl of a solution of yellow soluble 3-(4,5-dimethyl-2-thiazolyl)-2,5-diphenyl-2H-tetrazolium bromide (MTT) at a concentration of 0.5-1 mg/ml was added. After 4 hours of incubation, the MTT solution was decanted, and 50 µl/well of DMSO was added. After 3 hours, the optical density of the dissolved formazan was analyzed colorimetrically in a BioTek plate reader.
Since living cells reduce MTT to formazan, the optical density (OD) is highest in control (C) wells which accounted for 100% of cell viability. Viability in wells incubated with compound (COMP) was calculated using the formula: X = 100% x OD COMP/OD C [formula]
Figures 1 and 2 show the results of a viability assessment study (IC50) for TNF-α-stimulated SW982 and HaCaT cell lines treated with methotrexate alone or a glucose-methotrexate (Glu-MTX) derivative. […] The test was also performed on an unstimulated HaCaT cell line, which is the counterpart of non-inflammatory human keratinocytes. […] The study used: 10 µM Glu-MTX, 10 µM Methotrexate; incubation 48 hours; MTT analysis. […]

SMILES | solubility in water [1] | bioavailability ([2]; at higher doses) | bioavailability ([2]; at low doses) | plasma half-life ([2]; elimination from the circulation via the kidneys) [h] | cytotoxicity (cell viability) (unstimulated HaCaT cells)
CN(Cc1nc2c(N)nc(N)nc2[nH]c1=O)c1ccc(C(=O)N[C@@H](CCC(=O)O)C(=O)O)cc1 [7-OH-MTX] | sparingly soluble in water |  |  |  | 
CN(Cc1cnc2nc(N)nc(N)c2n1)c1ccc(C(=O)N[C@@H](CCC(=O)O)C(=O)O)cc1 [MTX, Methotrexate] |  | 10-20% | almost complete | 5 to 8 | much greater cytotoxicity
